# Data reported in the NIST ThermoML archive (doi:10.1016/j.tca.2013.03.025).
# Numbers after ± are expanded uncertainties.
# Assay: xn = mol fraction of the nth substance listed
# Conditions: 101 kPa, Liquid; for viscosity: Concentric cylinders viscometry; for mass density: Vibrating tube method
compound,measurement,setting,value
CCCCOC(=O)C(C)O (stereo not given) [butyl 2-hydroxypropanoate] + OCCCO,viscosity,"308.15 K, x1 = 0.0999",21.95 ± 0.23 mPa·s
same,viscosity,"308.15 K, x1 = 0.2",16.89 ± 0.19 mPa·s
same,viscosity,"308.15 K, x1 = 0.3001",12.93 ± 0.15 mPa·s
same,viscosity,"308.15 K, x1 = 0.4",9.744 ± 0.12 mPa·s
same,viscosity,"308.15 K, x1 = 0.4999",7.491 ± 0.099 mPa·s
same,viscosity,"308.15 K, x1 = 0.5999",5.805 ± 0.082 mPa·s
same,viscosity,"308.15 K, x1 = 0.6996",4.581 ± 0.068 mPa·s
same,viscosity,"308.15 K, x1 = 0.8001",3.667 ± 0.058 mPa·s
same,viscosity,"308.15 K, x1 = 0.9",2.929 ± 0.049 mPa·s
same,viscosity,"308.15 K, x1 = 1",2.481 ± 0.043 mPa·s
same,mass density,"308.15 K, x1 = 0.0999",1033 ± 0.35 kg/m3
same,mass density,"308.15 K, x1 = 0.2",1023.33 ± 0.45 kg/m3
same,mass density,"308.15 K, x1 = 0.3001",1013.99 ± 0.56 kg/m3
same,mass density,"308.15 K, x1 = 0.4",1006.06 ± 0.69 kg/m3
same,mass density,"308.15 K, x1 = 0.4999",998.523 ± 0.84 kg/m3
same,mass density,"308.15 K, x1 = 0.5999",991.652 ± 1 kg/m3
same,mass density,"308.15 K, x1 = 0.6996",985.382 ± 1.2 kg/m3
same,mass density,"308.15 K, x1 = 0.8001",979.183 ± 1.4 kg/m3
same,mass density,"308.15 K, x1 = 0.9",973.522 ± 1.6 kg/m3
same,mass density,"308.15 K, x1 = 1",967.567 ± 1.8 kg/m3
same,viscosity,"313.15 K, x1 = 0.0999",17.95 ± 0.19 mPa·s
same,viscosity,"313.15 K, x1 = 0.2",13.87 ± 0.15 mPa·s
same,viscosity,"313.15 K, x1 = 0.3001",10.69 ± 0.13 mPa·s
same,viscosity,"313.15 K, x1 = 0.4",8.124 ± 0.1 mPa·s
same,viscosity,"313.15 K, x1 = 0.4999",6.299 ± 0.084 mPa·s
same,viscosity,"313.15 K, x1 = 0.5999",4.926 ± 0.069 mPa·s
same,viscosity,"313.15 K, x1 = 0.6996",3.922 ± 0.058 mPa·s
same,viscosity,"313.15 K, x1 = 0.8001",3.171 ± 0.05 mPa·s
same,viscosity,"313.15 K, x1 = 0.9",2.558 ± 0.043 mPa·s
same,viscosity,"313.15 K, x1 = 1",2.181 ± 0.038 mPa·s
same,mass density,"313.15 K, x1 = 0.0999",1029.57 ± 0.35 kg/m3
same,mass density,"313.15 K, x1 = 0.2",1019.65 ± 0.45 kg/m3
same,mass density,"313.15 K, x1 = 0.3001",1010.09 ± 0.56 kg/m3
same,mass density,"313.15 K, x1 = 0.4",1001.96 ± 0.69 kg/m3
same,mass density,"313.15 K, x1 = 0.4999",994.239 ± 0.83 kg/m3
same,mass density,"313.15 K, x1 = 0.5999",987.21 ± 0.99 kg/m3
same,mass density,"313.15 K, x1 = 0.6996",980.794 ± 1.2 kg/m3
same,mass density,"313.15 K, x1 = 0.8001",974.453 ± 1.4 kg/m3
same,mass density,"313.15 K, x1 = 0.9",968.668 ± 1.6 kg/m3
same,mass density,"313.15 K, x1 = 1",962.603 ± 1.8 kg/m3
same,viscosity,"318.15 K, x1 = 0.0999",14.83 ± 0.16 mPa·s
same,viscosity,"318.15 K, x1 = 0.2",11.5 ± 0.13 mPa·s
same,viscosity,"318.15 K, x1 = 0.3001",8.916 ± 0.11 mPa·s
same,viscosity,"318.15 K, x1 = 0.4",6.84 ± 0.086 mPa·s
same,viscosity,"318.15 K, x1 = 0.4999",5.351 ± 0.071 mPa·s
same,viscosity,"318.15 K, x1 = 0.5999",4.221 ± 0.06 mPa·s
same,viscosity,"318.15 K, x1 = 0.6996",3.391 ± 0.051 mPa·s
same,viscosity,"318.15 K, x1 = 0.8001",2.768 ± 0.044 mPa·s
same,viscosity,"318.15 K, x1 = 0.9",2.253 ± 0.038 mPa·s
same,viscosity,"318.15 K, x1 = 1",1.935 ± 0.034 mPa·s
same,mass density,"318.15 K, x1 = 0.0999",1026.13 ± 0.34 kg/m3
same,mass density,"318.15 K, x1 = 0.2",1015.95 ± 0.44 kg/m3
same,mass density,"318.15 K, x1 = 0.3001",1006.16 ± 0.55 kg/m3
same,mass density,"318.15 K, x1 = 0.4",997.828 ± 0.68 kg/m3
same,mass density,"318.15 K, x1 = 0.4999",989.925 ± 0.82 kg/m3
same,mass density,"318.15 K, x1 = 0.5999",982.743 ± 0.98 kg/m3
same,mass density,"318.15 K, x1 = 0.6996",976.184 ± 1.2 kg/m3
same,mass density,"318.15 K, x1 = 0.8001",969.697 ± 1.3 kg/m3
same,mass density,"318.15 K, x1 = 0.9",963.791 ± 1.5 kg/m3
same,mass density,"318.15 K, x1 = 1",957.624 ± 1.7 kg/m3
same,viscosity,"323.15 K, x1 = 0.0999",12.36 ± 0.13 mPa·s
same,viscosity,"323.15 K, x1 = 0.2",9.627 ± 0.11 mPa·s
same,viscosity,"323.15 K, x1 = 0.3001",7.519 ± 0.089 mPa·s
same,viscosity,"323.15 K, x1 = 0.4",5.813 ± 0.073 mPa·s
same,viscosity,"323.15 K, x1 = 0.4999",4.586 ± 0.061 mPa·s
same,viscosity,"323.15 K, x1 = 0.5999",3.65 ± 0.052 mPa·s
same,viscosity,"323.15 K, x1 = 0.6996",2.958 ± 0.044 mPa·s
same,viscosity,"323.15 K, x1 = 0.8001",2.435 ± 0.039 mPa·s
same,viscosity,"323.15 K, x1 = 0.9",2.002 ± 0.034 mPa·s
same,viscosity,"323.15 K, x1 = 1",1.728 ± 0.031 mPa·s
same,mass density,"323.15 K, x1 = 0.0999",1022.65 ± 0.34 kg/m3
same,mass density,"323.15 K, x1 = 0.2",1012.21 ± 0.44 kg/m3
same,mass density,"323.15 K, x1 = 0.3001",1002.2 ± 0.55 kg/m3
same,mass density,"323.15 K, x1 = 0.4",993.673 ± 0.68 kg/m3
same,mass density,"323.15 K, x1 = 0.4999",985.589 ± 0.82 kg/m3
same,mass density,"323.15 K, x1 = 0.5999",978.248 ± 0.98 kg/m3
same,mass density,"323.15 K, x1 = 0.6996",971.548 ± 1.1 kg/m3
same,mass density,"323.15 K, x1 = 0.8001",964.924 ± 1.3 kg/m3
same,mass density,"323.15 K, x1 = 0.9",958.899 ± 1.5 kg/m3
same,mass density,"323.15 K, x1 = 1",952.631 ± 1.7 kg/m3
